Read-outs that look alike come from different tables or passages of the source.
What was measured:
[1] = system: Formosan subterranean termites; type: in vivo, Coptotermes formosanus; settings: for termites killed: 25 mg/liter volume
Procedure: (§1) Formosan subterranean termites were collected from bucket traps placed in City Park, New Orleans, La. Altogether five colonies designated 1314, 1559, 1732, 1743 and 1756 were used in the tests. After collection, the termites (primarily workers and soldiers) were transferred to plastic boxes with moist spruce slats. The boxes were stored in an incubator maintained at 28° C., 65% RH, and constant darkness. Termites were used within one month of their collection.
(§2) Vapor Toxicity Under Subterranean Conditions. This test was also conducted in the one liter Qorpak™ bottles. A 35 by 40 by 7 mm piece of moist spruce was placed at the bottom of the bottle and covered with 40 g fine-sifted black soil. One hundred termite workers were released into each bottle and allowed to tunnel under the soil and into the wood. After 3 days, a test chemical was applied to a filter paper and suspended from the cap-liner. The chemicals were tested at 10, 25 and 50 mg. […] The test was conducted with termites from 3 colonies and replicated 3 times.
Because in their natural environment the subterranean termites are not expected to be exposed to a chemical in open space, we conducted the next test by placing 100 workers termites in spruce slats covered with a layer of soil, all placed in the same glass bottles. Tests were conducted at 25 mg dose. After 2 days tetrahydrocarvone (both d- and l-isomers) caused 100% mortality.

drywood termites = settings: Petri dish assays, as claimed in prior art; cited from earlier work
[2] = system: Formosan subterranean termites; assay: Assay for Vapor Toxicity; type: in vivo, Coptotermes formosanus
Procedure: as §1
Assay for Vapor Toxicity. This test was conducted in 960 ml wide-mouth clear Qorpak™ (All-Pak, Inc.) bottles with PTFE lined caps. A 60 mm diameter glass Petri dish with a moist filter paper and 50 termite workers was placed at the bottom of each bottle. The test chemical was applied to a 1 cm diameter filter paper and suspended with an insect pin from the cap-liner. Each chemical was initially tested at 1 mg in the one liter bottle then at 0.1 and 0.5 mg. Since 0.1 and 0.5 mg doses caused very low and 100% mortality respectively, the final test was carried out at 0.25 mg. Each chemical was tested with different termite colonies and replicated three times. The bottles were placed in the incubator. Mortality was recorded after 1, 2 and 3 days by quickly taking the glass Petri dish with the termites out of the bottle (with a pair of long forceps) and replacing it after removing the dead workers.

fire ants = assay: Vapor Toxicity Under Subterranean Conditions with fire ants; type: in vivo, Solenopsis invicta; settings: 25 mg, in 24 hours
Procedure: as §2
The same Vapor Toxicity Under Subterranean Conditions test as described in paragraph [0023] was conducted except that fire ants were employed instead of termites.

carpenter ants = assay: Sealed jar test on carpenter ants; type: in vivo, Camponotus chromaoides; settings: one drop (approximately 30 mg) on filter paper in sealed 16 oz jar, within 24 hours
Procedure: One drop (approximately 30 mg) of tetrahydro l-carvone test compound was applied to filter paper within a sealed jar (16 oz glass jar, 3½ inch diameter, 3⅞ inch high with plastic lids) containing ten carpenter (Camponotus chromaoides) ants per replicate with there being five replicates. Five negative controls with no test compounds were also run. The tetrahydro-1-carvone provided 100% mortality to the carpenter ants within 24 hours while the control produced 6% mortality over the same 24 hour period.

Row | Compound | mortality of drywood and other termites (drywood termites) | efficacy against termites in soil and wood [1] | other results
1 | C=C(C)[C@@H]1CC[C@@H](C)C(=O)C1 [dihydro-l-carvone] |  |  | termites killed ([1]; in 48 hours): 100%
2 | CC(C)[C@@H]1CC[C@@H](C)C(=O)C1 [tetrahydrocarvone] |  |  | mortality ([1]; 25 mg dose, after 2 days, 100 worker termites in spruce slats covered with soil): 100%
3 | Cc1ccc(C(C)C)cc1 [p-cymene] | high mortality | totally ineffective | 
4 | CC(C)[C@@H]1CC[C@@H](C)C(=O)C1 [tetrahydro-d-carvone] |  |  | termites killed ([2]; 0.25 mg/liter volume, in 3 days): 75%; termites killed ([2]; 0.5 mg/liter volume, in 1 day): 100%; fire ants killed (fire ants): 100%
5 | CC(C)[C@@H]1CC[C@@H](C)C(=O)C1 [tetrahydro-l-carvone] |  |  | termites killed ([2]; 1 mg per liter volume, in 1 day): 100%; mortality to carpenter ants (carpenter ants): 100%; termites killed ([1]; in 24 hrs): 100%
6 | C=C(C)C1CC=C(C)[C@@H](O)C1 (stereo partly shown) [carveol] | high mortality | totally ineffective | 
7 | CC(C)=CCCC(C)CC=O (stereo not shown) [citronellal] | high mortality | totally ineffective | 
8 | CC(C)=CCC/C(C)=C/CO [geraniol] | high mortality | totally ineffective | 

— patent US9021738B2, “Control of termites, fire ants and carpenter ants” (priority 2008, dated 2015)
